{"source": "patent US7479564B2", "about": "“Aryl or heteroaryl fused imidazole compounds as anti-inflammatory and analgesic agents” (RaQualia Pharma Inc., priority 2000, dated 2009)"}
{"smiles": "Cc1ccc(S(=O)(=O)NC(=O)OCCc2ccc(-n3c(CCC(=O)c4cccnc4)nc4cc(C(F)(F)F)c(Cl)cc43)cc2)cc1", "values": [{"measurement": "melting point", "result": "89 to 95", "unit": "°C"}]}
{"smiles": "Cc1ccc(S(=O)(=O)NC(=O)OCCc2ccc(-n3c(CCC(=O)c4ccccn4)nc4cc(C(F)(F)F)c(Cl)cc43)cc2)cc1", "values": [{"measurement": "melting point", "result": 233.6, "unit": "°C"}]}
{"smiles": "Cc1ccc(S(=O)(=O)NC(=O)OCCc2ccc(-n3c(CCCN4CCCC4=O)nc4cc(C(F)(F)F)c(Cl)cc43)cc2)cc1", "values": [{"measurement": "melting point", "result": "85 to 90", "unit": "°C"}]}
{"smiles": "Cc1ccc(S(=O)(=O)NC(=O)OCCc2ccc(-n3c(CCC(=O)N4CCCCC4)nc4cc(C(F)(F)F)c(Cl)cc43)cc2)cc1", "values": [{"measurement": "melting point", "result": 210, "unit": "°C"}]}
{"smiles": "CCc1nc2c(C)cc(C)nc2n1-c1ccc(CC(C)OC(=O)NS(=O)(=O)c2ccc(C)cc2)cc1", "note": "(stereo not shown) [Example 7, 2-[4-(2-ETHYL-5,7-DIMETHYL-3H-IMIDAZO[4,5-b]PYRIDIN-3-YL)PHENYL]-1-METHYLETHYL (4-METHYLPHENYL)SULFONYLCARBAMATE]", "values": [{"measurement": "melting point", "result": 108, "unit": "°C"}]}
{"smiles": "CCc1nc2cc(C(=O)NC)c(Cl)cc2n1-c1ccc(CCOC(=O)NS(=O)(=O)c2ccc(C)cc2)cc1", "note": "[Example 334, 2-(4-{6CHLORO-2-ETHYL-5-[(METHYLAMINO)CARBONYL]-1H-BENZIMIDAZOL-1-YL}PHENYL)ETHYL (4-METHYLPHENYL)SULFONYLCARBAMATE]", "values": [{"measurement": "melting point", "result": "201 to 204", "unit": "°C"}]}
{"smiles": "CCc1nc2cc(COC)c(Cl)cc2n1-c1ccc(CCOC(=O)NS(=O)(=O)c2ccc(C)cc2)cc1", "values": [{"measurement": "melting point", "result": 174.5, "unit": "°C"}]}
{"smiles": "Cc1ccc(S(=O)(=O)NC(=O)OCCc2ccc(-n3c(CCC(=O)N4CCCC4)nc4cc(C(F)(F)F)c(Cl)cc43)cc2)cc1", "note": "[Example 363, 2-{4-[6-CHLORO-2-[3-OXO-3-(1-PYRROLIDINYL)PROPYL]-5-(TRIFLUOROMETHYL)-1H-BENZIMIDAZOL-1-YL]PHENYL}ETHYL (4-METHYLPHENYL)SULFONYLCARBAMATE]", "values": [{"measurement": "melting point", "result": "98 to 105", "unit": "°C"}]}
{"smiles": "CCc1nc2cc(C(N)=O)c(Cl)cc2n1-c1ccc(CCOC(=O)NS(=O)(=O)c2ccc(C)cc2)cc1", "values": [{"measurement": "melting point", "result": "170 to 175", "unit": "°C"}]}
{"smiles": "CCc1nc2cc(CO)c(Cl)cc2n1-c1ccc(CCOC(=O)NS(=O)(=O)c2ccc(C)cc2)cc1", "note": "[Example 337, 2-{4-[6-CHLORO-2-ETHYL-5-(HYDROXYMETHYL)-1H-BENZIMIDAZOL-1-YL]PHENYL}ETHYL (4-METHYLPHENYL)SULFONYLCARBAMATE]", "values": [{"measurement": "melting point", "result": 172.7, "unit": "°C"}]}
